Values after ≈ are worked out from the molar mass of the structure shown.
Test system: Enterococcus faecium
Experiment: microbe, parasite or virus in culture
Settings: NCTC 7171
Description: Antibacterial activity against Enterococcus faecium NCTC 7171 assessed as bacterial growth inhibition after 16-20 hrs by broth microdilution method

| SMILES | MIC |
| --- | --- |
| CC1=C(C(N)=O)C(c2ccc(N(C)C)cc2)n2nc(SCCNC(=O)OCc3ccccc3)nc2N1 (stereo unspecified) | > 128 µg/mL |
| CNC(=O)C1=C(C)Nc2nc(SCc3ccccc3)nn2C1c1ccc(N(C)C)cc1 (stereo unspecified) | 8 µg/mL (≈ 18.4 µM) |
| CC1=C(C(N)=O)C(c2ccc(F)cc2)n2nc(SCc3ccccc3)nc2N1 (stereo unspecified) | 128 µg/mL (≈ 324 µM) |
| CC1=C(C(N)=O)C(c2ncc[nH]2)n2nc(SCc3ccccc3)nc2N1 (stereo unspecified) | 32 µg/mL (≈ 87.1 µM) |
| CC1=C(C(=O)Nc2ccccc2)C(c2ccc(C)cc2)n2nc(SCc3ccccc3C)nc2N1 (stereo unspecified) | > 128 µg/mL |
| CC1=C(C(N)=O)C(c2ccc(N(C)C)cc2)n2nc(SCC(N)=O)nc2N1 (stereo unspecified) | > 128 µg/mL |
| COC(=O)c1nc2n(n1)C(c1ccc(N(C)C)cc1)C(C(N)=O)=C(C)N2 (stereo unspecified) | > 128 µg/mL |
| CC1=C(C(N)=O)C(c2ccc(N(C)C)cc2)n2nc(Sc3ccccn3)nc2N1 (stereo unspecified) | > 128 µg/mL |
| CC1=C(C(N)=O)C(c2cccc(C(C)C)c2)n2nc(SCc3ccccc3)nc2N1 (stereo unspecified) | 16 µg/mL (≈ 38.1 µM) |
| COC(=O)c1ccc(CSc2nc3n(n2)C(c2ccc(N(C)C)cc2)C(C(N)=O)=C(C)N3)cc1 (stereo unspecified) | > 128 µg/mL |
| CC1=C(C(N)=O)C(c2ccco2)n2nc(SCc3ccccc3)nc2N1 (stereo unspecified) | > 128 µg/mL |
| CC1=C(C(N)=O)C(c2ccc(Cl)cc2)n2nc(SCc3ccccc3)nc2N1 (stereo unspecified) | > 128 µg/mL |
| COc1ccc(C2C(C(=O)Nc3ccccc3C)=C(C)Nc3nc(SCc4cc(C)ccc4C)nn32)cc1 (stereo unspecified) | > 128 µg/mL |
| COc1ccc(C2C(C(=O)Nc3ccc(C)cc3C)=C(C)Nc3nc(SCc4cccc(C)c4)nn32)cc1 (stereo unspecified) | > 128 µg/mL |
| CCN(CC)CCOc1ccc(C2C(C(N)=O)=C(C)Nc3nc(SCc4ccccc4)nn32)cc1 (stereo unspecified) | > 128 µg/mL |
| COc1ccc(C2C(C(N)=O)=C(C)Nc3nc(SCc4ccccc4)nn32)cc1O (stereo unspecified) | > 128 µg/mL |
| CC1=C(C(N)=O)C(c2ccc(N(C)C)cc2)n2nc(SCc3ccc(C)cc3)nc2N1 (stereo unspecified) | > 128 µg/mL |
| CC1=C(C(=O)Nc2ccc(C)cc2C)C(c2ccc(Cl)cc2)n2nc(C(=O)OC(C)C)nc2N1 (stereo unspecified) | 16 µg/mL (≈ 33.3 µM) |
| CC1=C(C(N)=O)C(c2ccc(N(C)C)cc2)n2nc(SCc3ccc(C(=O)O)cc3)nc2N1 (stereo unspecified) | > 128 µg/mL |
| CC1=C(C(N)=O)C(c2ccc(N(C)C)cc2)n2nc(N)nc2N1 (stereo unspecified) | > 128 µg/mL |
| COc1ccc(C2C3=C(CCCC3=O)Nc3nc(SCc4ccc(F)cc4)nn32)cc1OC (stereo unspecified) | > 128 µg/mL |

| SMILES | MIC |
| --- | --- |
| CC1=C(C(N)=O)C(c2ccc(O)cc2)n2nc(SCc3ccccc3)nc2N1 (stereo unspecified) | > 128 µg/mL |
| CCOC(=O)c1nc2n(n1)C(c1ccc(N(C)C)cc1)C(C(N)=O)=C(C)N2 (stereo unspecified) | > 128 µg/mL |
| CC1=C(C(N)=O)C(c2c[nH]c3ccccc23)n2nc(SCc3ccccc3)nc2N1 (stereo unspecified) | > 128 µg/mL |
| CC1=C(C(N)=O)C(c2ccc(N(C)C)cc2)n2nc(SCc3ccc(OC(F)(F)F)cc3)nc2N1 (stereo unspecified) | > 128 µg/mL |
| CC1=C(C(N)=O)C(c2ccc([N+](=O)[O-])cc2)n2nc(SCc3ccccc3)nc2N1 (stereo unspecified) | 64 µg/mL (≈ 151 µM) |
| CC1=C(C(N)=O)C(c2ccc(N(C)C)cc2)n2nc(SCc3ccc(SC(F)(F)F)cc3)nc2N1 (stereo unspecified) | 8 µg/mL (≈ 15.4 µM) |
| CC1=C(C(N)=O)C(c2ccc(C(=O)O)cc2)n2nc(SCc3ccccc3)nc2N1 (stereo unspecified) | > 128 µg/mL |
| COc1ccc(C2C(C(N)=O)=C(C)Nc3nc(SCc4ccccc4)nn32)cc1 (stereo unspecified) | > 128 µg/mL |
| CSc1ccc(CSc2nc3n(n2)C(c2ccc(N(C)C)cc2)C(C(N)=O)=C(C)N3)cc1 (stereo unspecified) | > 128 µg/mL |
| CCc1ccc(C2C(C(=O)Nc3ccccc3C)=C(C)Nc3nc(SCc4cccc(OC)c4)nn32)cc1 (stereo unspecified) | > 128 µg/mL |
| CC1=C(C(N)=O)C(c2ccc(N(C)C)cc2)n2nc(SCc3ccncc3)nc2N1 (stereo unspecified) | 128 µg/mL (≈ 304 µM) |
| CC1=C(C(=O)Nc2ccccc2)C(c2ccc(N(C)C)cc2)n2nc(SCc3ccccc3)nc2N1 (stereo unspecified) | 8 µg/mL (≈ 16.1 µM) |
| CC1=C(C(N)=O)C(c2ccc(CC(C)C)cc2)n2nc(SCc3ccccc3)nc2N1 (stereo unspecified) | 8 µg/mL (≈ 18.5 µM) |
| CC1=C(C(N)=O)C(c2ccc(SC(F)(F)F)cc2)n2nc(SCc3ccccc3)nc2N1 (stereo unspecified) | > 128 µg/mL |
| CC1=C(C(N)=O)C(c2cccnc2)n2nc(SCc3ccccc3)nc2N1 (stereo unspecified) | > 128 µg/mL |
| COc1ccc(C2C3=C(CCCC3=O)Nc3nc(SCc4ccc(C(=O)O)cc4)nn32)cc1 (stereo unspecified) | > 128 µg/mL |
| CC1=C(C(N)=O)C(c2ccc(N(C)C)cc2)n2ncnc2N1 (stereo unspecified) | > 128 µg/mL |
| CSc1nc2n(n1)C(c1ccc(N(C)C)cc1)C(C(N)=O)=C(C)N2 (stereo unspecified) | > 128 µg/mL |
| O=C1CCCC2=C1C(c1ccc(Cl)cc1)n1nc(SCc3cccc4ccccc34)nc1N2 (stereo unspecified) | > 128 µg/mL |
| CC1=C(C(=O)Nc2ccc(C)cc2C)C(c2cccs2)n2nc(SCc3cccc(Cl)c3)nc2N1 (stereo unspecified) | > 128 µg/mL |
